What all share (assay type): cell-based
Test [1] relates to MCF7 human breast carcinoma cells. The test can be described thus: MCF-7 SRB Growth Assay. The conditions noted are these: read-out: GROWTH DATA: MCF7 10% FBS. The source says: (§1) The following examples illustrate the ability of the exemplary compounds to inhibit receptor tyrosine kinases, such as HER2 and/or EGFR. The following target cells were used for cellular kinase assays: NIH3T3 clone C7 (Honegger et al., supra) engineered to over-express human EGF receptor; NIH3T3 cells engineered to over-express a chimeric receptor containing the EGFR extracellular domain and the HER2 intracellular kinase domain; the human mammary carcinoma line BT474 (ATCC HTB2) expressing HER2; and the human glioblastoma line U1242 that expresses PDGFR-beta. Growth assays were carried out using human mammary epithelial SKBR3 (ATCC HTB30) cells (SKBR3 cells over-express HER2), SKOV3 (ATCC HTB77) human ovarian cancer cell line (SKOV3 cells also over-express HER2), A431 cells (A431 cells over-express EGFR) MCF7 human breast carcinoma cells, MCF7 cells overexpressing the HER2 kinase (MCF7-HER2), NIH3T3 cells, and NIH3T3 cells overexpressing the HER2 kinase (3T3-HER2.
MCF-7 cells are seeded at 2000 cells/ well in a 96-well flat bottom plate in normal growth media, which was 10% FBS/RPMI supplemented with 2 mM Glutamine. The plate of cells is incubated for about 24 hours at 37° C. after which it receives an equal volume of compound dilution per well making the total volume per well 200 μl. The compound is prepared at 2 times the desired highest final concentration and serially diluted in the normal growth media in a 96-well round bottom plate and then transferred to plate of cells. DMSO serves as the vector control up to 0.2% as final concentration. The cells are then incubated at 37° C. in a humidified 5% CO2 incubator.
Four days following dosing of compound, the media is 15 discarded and 200 μl/well of ice-cold 10% TCA (Trichloroacetic Acid) is added to fix cells. After 60 minutes at 4° C., the TCA is discarded and the plate is rinsed 5 times with water. The plate is then air-dried and 100 μl/well of 0.4% SRB (Sulforhodamine B from Sigma) 20 in 1% Acetic Acid is added to stain cells for 10 minutes at room temperature. The SRB is discarded and the plate is rinsed 5 times with 1% Acetic Acid. After the plate is completely dried, 100 μl/well of 10 mM Tris-base is added to solubilize the dye. After 5 to 10 minutes, the plate is read on a Dynatech ELISA Plate Reader at dual wavelengths at 570 nm and 630 nm.

Test [2] relates to chimeric receptor containing the EGFR extracellular domain and the HER2 intracellular kinase domain. Nature of the test: EGFR-HER2 chimeric receptor assay, HER2 kinase activity in whole NIH3T3 cells. The conditions noted are these: NIH3T3 cells with EGFR-HER2 chimera, EGF stimulated; read-out: ELISA DATA: HER2 - (3T3).
Description: as §1
EGFR-HER2 Chimeric Recetor
HER2 kinase activity (EGFR-3T3) in whole cells was measured as described below:
The materials and regeants are identical to these used in example 1, the EGFR whole cell kinase assay.
A. Coat ELISA plates (Corning, 96 well, Cat. #25805-96) with 05-101 antibody at 0.5 μg per well in PBS, 100 μl final volume/well, and store overnight at 4.sunburst.C. Coated plates are good for up to 10 days when stored at 4° C.
B. On day of use, remove coating buffer and replace with 100 μl blocking buffer (5% Carnation Instant Non-Fat Dry Milk in PBS). Incubate the plate, shaking, at room temperature (about 23.sunburst.C to 25.sunburst.C) for 30 minutes. Just prior to use, remove blocking buffer and wash plate 4 times with TBST buffer.
A. An NIH3T3 cell line overexpressing a chimeric receptor containing the EGFR extracellular domain and […] can be used for this assay.
B. Choose dishes having 80-90% confluence for the experiment. Trypsinize cells and stop reaction by adding 10% fetal bovine serum. Suspend cells in DMEM medium (10% CS DMEM medium) and centrifuge once at 1500 rpm, at room temperature for 5 minutes.
C. Resuspend cells in seeding medium (DMEM, 0.5% bovine serum) , and count the cells using trypan blue. Viability above 90% is acceptable. Seed cells in DMEM medium (0.5% bovine serum) at a density of 10,000 cells per well, 100 μl per well, in a 96 well microtiter plate. Incubate seeded cells in 5% CO2 at 37.sunburst.C for about 40 hours.
A. Check seeded cells for contamination using an inverted microscope. Dilute drug stock (10 mg/ml in DMSO) 1:10 in DMEM medium, then transfer 5 l to a […] well for a final drug dilution of 1:200 and a final DMSO concentration of 1%. Control wells receive DMSO alone. Incubate in 5% CO2 at 37° C. for two hours. […]

In test [3] the test system is MCF7 cells overexpressing the HER2 kinase (MCF7-HER2). The test can be described thus: MCF-7/HER-2 SRB Growth Assay. The conditions noted are these: Homo sapiens, read-out: GROWTH DATA: MCF7-HER2 0.5% FBS.
Description: as §1
MCF-7/HER-2 SRB Growth Assay
The protocol is basically the same as that above (for the MCF-7 Growth Assay) except that immediately before the 30 compound is added, the normal growth media is removed and 0.5% FBS/RPMI supplemented with 2 mM Glutamine is added onto the cells. The compound is also prepared in this 0.5% serum media. The plate of cells is incubated for four days and developed as usual.

Take `CC(C)S(=O)(=O)c1csc(NC(=O)Nc2ccc(C(C)(C)C)cc2)c1Cl` [Example Z1, N-[3-Chloro-4-(isopropylsulfonyl)thien-2-yl]-N'-(4-t-butylphenyl)urea]: the IC50 in test [1] was determined as 5000 nM; in test [2] it was 10.3 µM; in test [3] it was 900 nM.
With `CC(C)S(=O)(=O)c1csc(NC(=O)Nc2cc(C(F)(F)F)cc(C(F)(F)F)c2)c1Cl` [Example Z2, N-[3-Chloro-4-(isopropylsulfonyl)thien-2-yl]-N'-(3,5-di-trifluoromethylphenyl)urea], the IC50 in test [1] was 1000 nM; in test [2], 31.7 µM; in test [3] it was 300 nM.
Take `O=C(Nc1ccc(SC(F)(F)F)cc1)Nc1ccc(Oc2ccc(Cl)cc2Cl)nc1` [Example Z3]: the IC50 in test [1] is 2000 nM; in test [2], greater than 100 µM; in test [3], 200 nM.
For `N#Cc1ccc(NC(=S)Nc2ccc(S(=O)(=O)N3CCCCC3)cc2)cc1` [Example Z4, N-(4-Cyanophenyl)-N'-[4-[(piperid-1-yl)sulfonyl]phenyl]thiourea], the results for the IC50 in test [1], in test [2] and in test [3] were 3000 nM, greater than 100 µM and 1000 nM, respectively.

The values above are taken from patent US5773459A, “Urea- and thiourea-type compounds” (Sugen, Inc., priority 1995, dated 1998).
